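Protocol summary: plate cells (96-well), add compound at 5 concentrations, incubate 48 h, interpolate endpoints linearly. Abbreviation: GI50, concentration required for 50% inhibition of growth.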 Calls of active or inactive are those of the source. No stated cut-off is given here; in the data, active = GI50 up to about 1.1 µM and inactive = higher.

Test systems include NCI/ADR-RES; HOP-62; HL-60; SF-268; MOLT-4; SF-295; MDA-MB-435; SNB-19; UACC-62; BT-549; SNB-75; MCF7; ACHN; NCI-H23; HCT-116; OVCAR-5; A549; NCI-H522; Hs-578T; K562.
What all share (experiment): NCI tumour cell line growth inhibition, 48 h

For the compound `CC(CO)C1C[C@H](O)[C@@]2(C)CC(=O)C=C(CO)[C@@H]2C1` (some centres undefined), the GI50 is > 100 µM (inactive) in the assay with NCI/ADR-RES; > 100 µM (inactive) with HOP-62; 92 µM (inactive) with HL-60; > 100 µM (inactive) in the assay on SF-268; > 100 µM (inactive) in the assay with MOLT-4; > 100 µM (inactive) with SF-295. In addition, the GI50 in the assay on MDA-MB-435, in the assay with SNB-19, with UACC-62, in the assay with BT-549, in the assay with SNB-75 and in the assay with MCF7 was > 100 µM (inactive) in each case. The GI50 in the assay with ACHN, in the assay with NCI-H23, in the assay on HCT-116, in the assay on OVCAR-5 and with A549 was > 100 µM (inactive) in each case.

For `COc1cc(-c2cc(OC)c(OC)c3ccc(Br)cc23)c2cc(Br)ccc2c1OC`, the GI50 in the assay on NCI/ADR-RES is 33.7 µM (inactive); in the assay on HOP-62 it was 21.6 µM (inactive); in the assay on NCI-H522, 42.9 µM (inactive); with SF-268, 20.2 µM (inactive); with MOLT-4 it was 45.7 µM (inactive); in the assay on SF-295, 18.6 µM (inactive). Moreover, the GI50 in the assay on MDA-MB-435 is 23.7 µM (inactive); with SNB-19, 39.5 µM (inactive); in the assay with UACC-62, 21.9 µM (inactive); in the assay with Hs-578T it was 38.8 µM (inactive); with MCF7 it was 47.2 µM (inactive); in the assay with ACHN, 22.1 µM (inactive). Besides, the GI50 in the assay with NCI-H23 is 22.4 µM (inactive); with HCT-116 it was 12.4 µM (inactive); in the assay with OVCAR-5, 15.9 µM (inactive); with A549 it was 20.3 µM (inactive); in the assay on K562, 22.4 µM (inactive).

Take `O=C1c2ccccc2C(=O)N1NC1=NCCN1`: the GI50 with NCI/ADR-RES, in the assay on HOP-62, in the assay with NCI-H522, in the assay with HL-60, with SF-268 and in the assay on MOLT-4 was > 100 µM (inactive) throughout. Besides, the GI50 in the assay on SF-295, in the assay on MDA-MB-435, in the assay on SNB-19, in the assay with UACC-62, with BT-549 and with MCF7 was > 100 µM (inactive) each time. Further, the GI50 in the assay with ACHN, with NCI-H23, with HCT-116, in the assay with OVCAR-5, in the assay with A549 and in the assay with K562 was > 100 µM (inactive) throughout.

With `C=C1C(=O)O[C@H]2/C=C(/C)C3=CC(=O)[C@@](C)(C[C@@H](OC(=O)/C(C)=C\C)C12)O3` (some centres undefined), the GI50 with HOP-62 was 9.4 µM (inactive); in the assay on NCI-H522, 0.138 µM (active); in the assay on HL-60, < 0.0451 µM (active); with SF-268 it was 1.88 µM (inactive); in the assay on MOLT-4, 1.87 µM (inactive); with SF-295, 12 µM (inactive). Also, the GI50 in the assay with MDA-MB-435 is 1.21 µM (inactive); in the assay with UACC-62, 0.891 µM (active); with Hs-578T, 6.05 µM (inactive); with SNB-75, 8.69 µM (inactive); in the assay on MCF7 it was 0.36 µM (active); in the assay on ACHN it was 0.232 µM (active). Besides, the GI50 with NCI-H23 is 2.42 µM (inactive); with HCT-116 it was 0.377 µM (active); in the assay with OVCAR-5 it was 2.4 µM (inactive); with A549 it was 4.05 µM (inactive); in the assay on K562, 0.154 µM (active).

Source of the values: ChEMBL document CHEMBL1201862, “PubChem BioAssay data set” (2004).
